From publication PMC12340973, “Discovery of First-in-Class Inhibitors Targeting a Pathogen-Associated Aminoglycoside-Resistance 16S rRNA Methyltransferase” (ACS Infectious Diseases, 2025)

What was measured:
Type in all cases: biochemical
[1] = target: T1, NpmA (16S rRNA (m1A1408) methyltransferase) (Escherichia coli, UniProt A8C927); assay: in vitro […] subunit [3H]-SAM methylation filter-binding assay, dose-response
T1 construct: recombinant NpmA

[2] = target: T1, NpmA (16S rRNA (m1A1408) methyltransferase); assay: in vitro […] subunit [3H]-SAM methylation assay at fixed […]; conditions: read-out: % activity at 1 mM
[3] = target: T1, NpmA (16S rRNA (m1A1408) methyltransferase); assay: in vitro […] subunit [3H]-SAM methylation filter-binding assay, dose-response; resynthesized and retested

T1 sequence (A8C927 whole entry): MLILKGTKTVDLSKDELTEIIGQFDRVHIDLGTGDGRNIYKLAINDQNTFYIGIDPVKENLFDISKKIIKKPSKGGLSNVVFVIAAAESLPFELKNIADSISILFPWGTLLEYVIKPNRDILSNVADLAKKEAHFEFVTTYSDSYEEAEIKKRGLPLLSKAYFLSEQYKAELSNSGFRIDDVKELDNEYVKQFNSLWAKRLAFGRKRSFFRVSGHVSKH

SMILES	IC50 [1] [µM]	activity at 1000 µM [2] [%]	other results
Cc1ccc(NC(=O)C(=Cc2cccc([N+](=O)[O-])c2)NC(=O)c2ccc(Cl)cc2Cl)cc1 [compound 47]	68		
COc1cc(C2C(C(=O)OCCc3ccccc3)=C(C)NC3=C2C(=O)CC(c2ccccc2)C3)cc(Br)c1O (stereo not drawn) [compound 20]		< 25	
Cc1ccc(-c2cc(C(=O)N3CCC(c4cc(O)ncn4)CC3)[nH]n2)cc1 [compound 10]		< 25	
Cc1ccc(NC(=O)C(=Cc2cccc([N+](=O)[O-])c2)NC(=O)c2ccccc2I)cc1 [compound 45]	99		
CC(=O)c1ccc(NC(=O)/C(=C/c2cccc([N+](=O)[O-])c2)NC(=O)c2ccc(C)cc2)cc1 [compound 3]		< 25	
CC(=O)c1ccc(NC(=O)/C(=C/c2cccc([N+](=O)[O-])c2)NC(=O)c2ccccc2Cl)cc1 [compound 23, (Z)-N-(3-((4-Acetylphenyl)-amino)-1-(3-nitrophenyl)-3-oxoprop-1-en-2-yl)-2-chlorobenz-amide]			IC50 [3]: 76 µM
